Several values for one entry are separate records, joined by “and”; a condition that tells them apart may be missing. Identical values can stand only once. Like-named read-outs stand apart in the source and are kept apart here.
How the values were obtained:
PDGFR [1] = assay: Receptor tyrosine kinase inhibition, PDGFR; type: cell-based; conditions: W = done in Western assay; read-out: PDGFR IC50 (W)
Procedure: (§1) For western blotting, cells were plated in 2 mL growth medium into 6-well dishes (500,000 cells per well) and allowed to attach overnight. […] The plates were then incubated overnight at 37° C., ambient CO2. […] After a 7 min incubation at room temperature with ligand, the plates were put on ice and washed three times with 1 mL ice-cold PBS plus 1 mM orthovanadate. Lysis was achieved by pipetting cells in 0.5 mL of buffer containing 50 mM Tris, pH 7.4, 10% glycerol, 1% NP-40, 2 mM EDTA, 1 mM sodium vanadate (Na3 VO4), 10 mM pyrophosphate, 1 mM PMSF, […]. A 300 μL aliquot of each lysate was immediately added to 100 μL 4×Laemmli sample buffer ([…] Tris pH 6.9, 20% glycerol, 7% SDS, 5 mM EDTA, 5% β-mercaptoethanol) containing phosphatase inhibitors, 2 mM Na3 VO4 and 10 mM pyrophosphate. Samples were boiled for 5 min, frozen in dry ice-ethanol, and stored at -80° C. […] The integrity of the protein-to-membrane transfer was determined by staining with 1% Ponceau S in 5% acetic acid for 5 min. After destaining in several distilled water rinses, the membrane was soaked overnight in blocking buffer containing 5% milk in Tris-buffered saline, 0.05% Tween 20. Phosphotyresine was detected by incubating the membrane (1 hr at room temperature) with an anti-phosphotyosine antiserum diluted in blocking buffer at 1:3000. […] The antibodies were visualized using ECL reagent from Amersham and by exposure to Fuji RX film.
(§2) For ELISA assays, cells were grown to 80-90% confluency in growth medium and seeded in 96-well tissue culture plates in 0.5% serum at 25,000 to 30,000 cells per well. After overnight incubation in 0.5% serum-containingmedium, cells were changed to serum-free medium and treated with test compound for 2 hr in a 5% CO2, 37° C. incubator. […] Lysates were incubated with shaking for 1 hr at room temperature. The plates were washed with TBST four times and then incubated with polyclonol anti-phosphotyrosine antibody at room temperature for 30 min. Excess anti-phosphotyrosine antibody was removed by rinsing the plate with TBST four times. Goat anti-rabbit IgG antibody was added to the ELISA plate for 30 min at room temperature followed by rinsing with TBST four more times.
(§3) The ability of different compound to inhibit different receptor tyrosine kinases was tested.

FLK-1 = target: T1, FLK-1 (Mus musculus, UniProt P35918); assay: Receptor tyrosine kinase inhibition, FLK-1; type: cell-based; conditions: read-out: FLK-1 IC50
T1 construct: expressed in transfected cells; host or cells: NIH3T3 mouse fibroblasts, retroviral vector
T1 sequence (P35918 20-1345): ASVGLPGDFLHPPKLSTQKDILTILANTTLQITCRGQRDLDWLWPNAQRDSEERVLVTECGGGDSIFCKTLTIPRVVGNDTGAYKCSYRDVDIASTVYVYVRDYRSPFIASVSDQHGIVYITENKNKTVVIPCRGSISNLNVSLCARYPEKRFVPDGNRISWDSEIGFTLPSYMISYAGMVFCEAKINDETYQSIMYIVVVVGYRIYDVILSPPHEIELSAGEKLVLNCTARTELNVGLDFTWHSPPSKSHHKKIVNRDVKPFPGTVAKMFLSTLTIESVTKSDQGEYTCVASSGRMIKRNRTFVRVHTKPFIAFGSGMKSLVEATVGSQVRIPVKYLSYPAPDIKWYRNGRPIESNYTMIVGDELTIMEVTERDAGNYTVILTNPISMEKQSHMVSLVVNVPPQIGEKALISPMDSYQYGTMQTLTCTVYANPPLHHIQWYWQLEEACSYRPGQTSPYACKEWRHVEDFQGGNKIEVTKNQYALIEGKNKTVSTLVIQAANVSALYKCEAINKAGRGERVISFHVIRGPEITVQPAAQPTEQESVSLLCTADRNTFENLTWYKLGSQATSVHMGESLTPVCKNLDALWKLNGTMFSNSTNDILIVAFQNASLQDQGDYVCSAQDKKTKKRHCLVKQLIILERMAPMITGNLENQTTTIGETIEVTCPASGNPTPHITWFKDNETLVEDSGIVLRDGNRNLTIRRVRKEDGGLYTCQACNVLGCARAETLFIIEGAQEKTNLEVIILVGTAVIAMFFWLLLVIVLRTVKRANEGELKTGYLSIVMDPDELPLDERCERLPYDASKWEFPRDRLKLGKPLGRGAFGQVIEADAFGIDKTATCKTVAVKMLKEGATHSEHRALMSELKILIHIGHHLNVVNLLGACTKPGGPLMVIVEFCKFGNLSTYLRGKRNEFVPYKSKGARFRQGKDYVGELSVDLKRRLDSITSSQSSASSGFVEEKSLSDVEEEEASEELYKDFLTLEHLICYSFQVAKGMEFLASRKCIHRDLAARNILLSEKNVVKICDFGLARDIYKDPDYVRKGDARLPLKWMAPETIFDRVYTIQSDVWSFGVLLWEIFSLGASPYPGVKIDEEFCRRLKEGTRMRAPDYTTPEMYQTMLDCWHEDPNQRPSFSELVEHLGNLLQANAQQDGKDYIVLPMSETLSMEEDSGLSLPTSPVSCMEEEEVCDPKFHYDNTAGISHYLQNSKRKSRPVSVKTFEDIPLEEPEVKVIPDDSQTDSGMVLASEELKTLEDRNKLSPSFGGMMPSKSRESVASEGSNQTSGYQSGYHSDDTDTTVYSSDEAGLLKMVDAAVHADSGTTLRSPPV
Procedure: (§4) For western blotting, cells were plated in 2 mL growth medium into 6-well dishes (500,000 cells per well) and allowed to attach overnight. The medium was replaced with 2 mL MCDB 105 (UCSF Cell Culture Facility) supplemented with 1% FBS. The plates were then incubated overnight at 37° C., ambient CO2. […] After a 7 min incubation at room temperature with ligand, the plates were put on ice and washed three times with 1 mL ice-cold PBS plus 1 mM orthovanadate. Lysis was achieved by pipetting cells in 0.5 mL of buffer containing 50 mM Tris, pH 7.4, 10% glycerol, 1% NP-40, 2 mM EDTA, 1 mM sodium vanadate (Na3 VO4), 10 mM pyrophosphate, 1 mM PMSF, […]. A 300 μL aliquot of each lysate was immediately added to 100 μL 4×Laemmli sample buffer ([…] Tris pH 6.9, 20% glycerol, 7% SDS, 5 mM EDTA, 5% β-mercaptoethanol) containing phosphatase inhibitors, 2 mM Na3 VO4 and 10 mM pyrophosphate. Samples were boiled for 5 min, frozen in dry ice-ethanol, and stored at -80° C. Proteins were resolved by SDS-PAGE (Bio-Rad Miniprotean II) and transferred to nitrocellulose membrane (Schleicher & Schuell) at 120 volts for 1 hr at room temperature in buffer containing 25 mM Tris pH 8.3, 20% methanol, 0.2 M glycine, 0.1% SDS. The integrity of the protein-to-membrane transfer was determined by staining with 1% Ponceau S in 5% acetic acid for 5 min. After destaining in several distilled water rinses, the membrane was soaked overnight in blocking buffer containing 5% milk in Tris-buffered saline, 0.05% Tween 20. Phosphotyresine was detected by incubating the membrane (1 hr at room temperature) with an anti-phosphotyosine antiserum diluted in blocking buffer at 1:3000. For C6 cells, PDGF-β receptor content in the lysates was confirmed in duplicate sample lanes by western blotting using an antibody specific for PDGF-β receptor (UBI). The antibodies were visualized using ECL reagent from Amersham and by exposure to Fuji RX film.
(§5) For ELISA assays, cells were grown to 80-90% confluency in growth medium and seeded in 96-well tissue culture plates in 0.5% serum at 25,000 to 30,000 cells per well. After overnight incubation in 0.5% serum-containingmedium, cells were changed to serum-free medium and treated with test compound for 2 hr in a 5% CO2, 37° C. incubator. Cells were then stimulated with ligand for 5-10 min followed by lysis with HNTG (20 mM Hepes, 150 mM NaCl, 10% glycerol, 5 mM EDTA, 5 mM Na3 VO4 0.2% Triton X-100, and 2 mM NaPyr). Cell lysates (0.5 mg/well in PBS) were transferred to ELISA plates previously coated with receptor-specific antibody and which had been blocked with 5% milk in TBST (50 mM Tris-HCl pH 7.2, 150 mM NaCl and 0.1% Triton X-100) at room temperature for 30 min. Lysates were incubated with shaking for 1 hr at room temperature. The plates were washed with TBST four times and then incubated with polyclonol anti-phosphotyrosine antibody at room temperature for 30 min. Excess anti-phosphotyrosine antibody was removed by rinsing the plate with TBST four times. Goat anti-rabbit IgG antibody was added to the ELISA plate for 30 min at room temperature followed by rinsing with TBST four more times.
as §3

C6 cells = assay: C6 SRB growth assay; type: cell-based, rat; conditions: for IC50: read-out: C6 SRB IC50
[2] = C6 glioma SC xenograft in mice; type: in vivo; conditions: rat, in vivo, ip; for mortality at 240 h: 60 mg/kg (G24 at d10)
Procedure: (§6) Cell lines were grown in appropriate medium (see Appendix 1). Cells were harvested at or near confluency with 0.05% Trypsin-EDTA and pelleted at 450×g for 10 min. Pellets were resuspended in sterile PBS or media (without FBS) to a particular concentration and the cells were implanted into the hindflank of mice. Tumor growth was measured over 3 to 6 weeks using venier calipers. Tumor volumes were calculated as a product of length×width×height unless otherwise indicated. P values were calculated using the Students' t-test.
(§7) C6 and SKOV-3(T) cells were grown in culture, as described in "cell growth" above, and implanted into the hind flank of a female Balb/c nu/nu mouse at 3×10^6 cells (for C6 experiments), or 1×10^7 cells (for SKOV-3 experiments) in […] of PBS on Day 0. U87MG, U118MG or U373MG human glioblastoma cells (obtained from the ATCC), or A4312 were also implanted into athymic mice. […] Tumors were measured using venier calipers and tumor volume was calculated as a product of tumor length, width, and height.

C6 glioma cells = assay: C6 glioma SC xenograft in mice; type: in vivo
Procedure: as §6, §7

PDGF-R (U1242) = target: T2, PDGF-R (U1242) (Homo sapiens, UniProt P09619); assay: U1242 kinase (PDGF-R activity); type: cell-based
T2 construct: U1242 (PDGF-β receptor); host or cells: U1242 MG glioma cells
T2 sequence (P09619 33-1106): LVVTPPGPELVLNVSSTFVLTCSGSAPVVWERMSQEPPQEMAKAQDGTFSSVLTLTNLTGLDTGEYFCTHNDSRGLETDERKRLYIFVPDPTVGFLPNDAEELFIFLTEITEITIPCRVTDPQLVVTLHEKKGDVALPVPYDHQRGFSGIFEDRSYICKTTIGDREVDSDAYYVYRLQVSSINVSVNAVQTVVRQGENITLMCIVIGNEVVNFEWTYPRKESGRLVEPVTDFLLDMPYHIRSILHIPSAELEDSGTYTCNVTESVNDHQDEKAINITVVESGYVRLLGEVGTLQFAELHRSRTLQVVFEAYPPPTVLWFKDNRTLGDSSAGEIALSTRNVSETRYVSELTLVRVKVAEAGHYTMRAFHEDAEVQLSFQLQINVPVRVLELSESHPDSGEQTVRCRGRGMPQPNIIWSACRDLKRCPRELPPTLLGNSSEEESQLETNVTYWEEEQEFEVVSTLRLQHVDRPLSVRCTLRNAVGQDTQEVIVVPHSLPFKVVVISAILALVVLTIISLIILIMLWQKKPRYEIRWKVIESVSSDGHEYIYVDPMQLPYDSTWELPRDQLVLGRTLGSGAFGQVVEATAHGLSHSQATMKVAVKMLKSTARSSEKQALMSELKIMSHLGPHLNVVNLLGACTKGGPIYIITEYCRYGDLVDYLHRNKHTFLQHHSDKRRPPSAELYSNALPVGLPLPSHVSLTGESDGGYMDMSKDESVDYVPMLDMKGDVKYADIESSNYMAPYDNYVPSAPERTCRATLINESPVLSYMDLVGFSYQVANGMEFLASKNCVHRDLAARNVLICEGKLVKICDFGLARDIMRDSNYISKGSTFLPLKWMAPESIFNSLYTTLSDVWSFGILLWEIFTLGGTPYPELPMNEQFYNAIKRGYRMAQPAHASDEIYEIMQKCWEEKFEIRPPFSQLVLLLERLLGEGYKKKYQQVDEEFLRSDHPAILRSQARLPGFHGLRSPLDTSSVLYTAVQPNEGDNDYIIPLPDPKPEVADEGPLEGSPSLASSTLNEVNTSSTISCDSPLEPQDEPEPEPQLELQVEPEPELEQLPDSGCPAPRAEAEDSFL
Procedure: as §1, §2
PDGF-R activity, C6 SRB, and in vivo efficacy were measured using the procedures described in the appendices above.

LD10 = conditions: in vivo
EGFR = target: T3, EGFR (Homo sapiens, UniProt P00533); assay: Receptor tyrosine kinase inhibition, EGFR; type: cell-based; conditions: read-out: EGFR ID50
T3 construct: expressed in transfected cells; host or cells: NIH3T3 mouse fibroblasts, retroviral vector
T3 sequence (P00533 25-1210): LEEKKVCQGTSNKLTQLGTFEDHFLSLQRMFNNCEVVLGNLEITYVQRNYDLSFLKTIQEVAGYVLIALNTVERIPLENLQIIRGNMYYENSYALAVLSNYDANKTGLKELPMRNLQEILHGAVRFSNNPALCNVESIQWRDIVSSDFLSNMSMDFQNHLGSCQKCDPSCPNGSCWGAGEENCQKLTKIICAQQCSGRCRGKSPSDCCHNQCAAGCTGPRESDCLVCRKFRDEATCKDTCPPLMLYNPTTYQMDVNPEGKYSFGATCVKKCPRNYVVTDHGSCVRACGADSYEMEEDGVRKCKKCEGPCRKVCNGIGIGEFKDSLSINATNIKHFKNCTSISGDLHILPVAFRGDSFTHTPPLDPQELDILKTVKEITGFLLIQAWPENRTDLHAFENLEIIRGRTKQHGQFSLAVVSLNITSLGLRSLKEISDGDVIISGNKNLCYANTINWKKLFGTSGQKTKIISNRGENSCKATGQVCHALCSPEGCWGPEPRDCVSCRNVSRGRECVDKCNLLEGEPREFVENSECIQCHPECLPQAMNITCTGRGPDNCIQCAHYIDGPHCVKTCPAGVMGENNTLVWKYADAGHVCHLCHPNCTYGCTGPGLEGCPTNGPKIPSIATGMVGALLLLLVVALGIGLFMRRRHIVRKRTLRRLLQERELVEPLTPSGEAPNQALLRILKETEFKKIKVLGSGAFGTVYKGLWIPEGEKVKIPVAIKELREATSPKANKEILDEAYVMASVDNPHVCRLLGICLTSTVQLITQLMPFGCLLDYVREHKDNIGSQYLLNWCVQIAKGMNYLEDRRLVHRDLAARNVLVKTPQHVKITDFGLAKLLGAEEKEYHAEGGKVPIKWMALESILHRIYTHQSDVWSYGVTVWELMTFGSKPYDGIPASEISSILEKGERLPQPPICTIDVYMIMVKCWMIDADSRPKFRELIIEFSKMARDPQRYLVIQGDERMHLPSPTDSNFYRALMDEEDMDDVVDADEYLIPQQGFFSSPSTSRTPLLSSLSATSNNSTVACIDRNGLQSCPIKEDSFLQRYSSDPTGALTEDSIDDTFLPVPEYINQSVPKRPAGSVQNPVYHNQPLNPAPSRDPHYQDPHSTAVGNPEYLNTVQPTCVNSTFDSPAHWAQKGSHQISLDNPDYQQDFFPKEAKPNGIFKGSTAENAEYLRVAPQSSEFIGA
Procedure: as §4, §5, §3

HER2 = assay: Receptor tyrosine kinase inhibition, HER2; type: cell-based; conditions: read-out: HER2 IC50
Procedure: as §4, §5, §3

PDGFR [3] = target: PDGFR (Homo sapiens, UniProt P09619); assay: Receptor tyrosine kinase inhibition, PDGFR; type: cell-based; set-up: U1242 (PDGF-β receptor); host or cells: U1242 glioma cells (ELISA)
Chain of PDGFR (Homo sapiens, UniProt P09619) (P09619 33-1106): as the sequence (P09619 33-1106) above
Procedure: as §1, §2, §3

[4] = W = done in Western assay, read-out: U1242 KINASE IC50 (W)
[5] = 40 mg/kg (J10 at d18, G24 at d15)
[6] = Rattus norvegicus, C6 glioma, sc, at 40 mg/kg, read-out: C6 in vivo EFFICACY

Row | SMILES | IC50 (FLK-1) [µM] | IC50 (C6 cells; Rattus norvegicus, C6) [µM] | IC50 (PDGF-R (U1242); read-out: U1242 KINASE IC50) | LD10 (LD10) [mg/kg] | IC50 (EGFR) [µM] | IC50 (HER2) [µM] | IC50 (PDGFR [3]; read-out: PDGFR IC50) [µM] | also measured
1 | CC1c2nc3ccccc3c(=O)n2C(c2ccc(O)c(O)c2)N1Cc1ccccc1 (stereo not drawn) [Compound H10] | > 50 | 13 | > 50 µM | 75 |  |  |  | IC50 (PDGFR [1]): 25 µM; mortality at 408 h ([2]; 30 mg/kg, at d17): 14.3%; inhibition in vivo at 30 mg/kg (C6 glioma cells; Rattus norvegicus, C6 glioma, sc, at 30 mg/kg, read-out: C6 in vivo EFFICACY): 52%; IC50 (PDGF-R (U1242); [4]): 25 µM
2 | CC1c2nc3ccccc3c(=O)n2C(c2ccc(O)cc2)N1Cc1ccccc1 (stereo not drawn) [Compound H13] |  | 20 | > 50 µM | > 400 |  |  |  | IC50 (C6 cells): 10.5 µM; mortality [2, 5]: 0%; mortality at 192 h ([2]; 100 mg/kg (E15 at d8)): 0%; inhibition in vivo at 40 mg/kg (C6 glioma cells; [6]): 0%; inhibition in vivo at 100 mg/kg (C6 glioma cells; Rattus norvegicus, C6 glioma, sc, at 100 mg/kg, read-out: C6 in vivo EFFICACY): 41%
3 | COc1cc2ncnc(N3CCc4ccccc43)c2cc1OC [Compound P17] |  | 12 |  | > 100 |  |  |  | 
4 | Cc1cc2nc(-c3ccccc3)c(-c3ccc(O)c(O)c3)nc2cc1C [Compound G24] | 9.3 |  | 0.6 µM and 5 µM | > 200 | > 100 | > 50 | 5 | mortality ([2]; 20 mg/kg): 0%; mortality [2, 5]: 12.5%; mortality at 240 h [2]: 100%; C6 in vivo EFFICACY (C6 glioma cells; at 20 mg/kg): no effect; C6 in vivo EFFICACY (C6 glioma cells; at 40 mg/kg): no effect; C6 in vivo EFFICACY (C6 glioma cells; at 60 mg/kg): no effect
5 | Cc1cc2nc(C(=O)O)c(-c3ccccc3)nc2cc1C [Compound G25] | > 50 | 50 | 1 µM |  | > 50 | > 50 | 0.9 | 
6 | Cc1cc2ncc(Nc3ccc(I)cc3)nc2cc1C [Compound G30] | 10 | 2 | 32.5 µM |  | > 100 | 34 | 32 | 
7 | Cc1cc2ncc(Nc3cccc(I)c3)nc2cc1C [Compound G29] | 10 | > 13 | 23.2 µM |  | < 0.8 | 34 | 23 | 
8 | Cc1noc(C)c1C(=O)Nc1ccc(C(F)(F)F)cc1 [Compound A13, N-trifluoromethlyphenyl 3,5-dimethylisoxazole-4-carboxamide] |  | > 25 |  | > 200 |  |  |  | inhibition at 25 µM (C6 cells; Rattus norvegicus, C6, at 25 μM): ~30%
9 | COc1cc(C=C(C#N)C(=O)NCCCc2ccccc2)cc(I)c1O [Compound P16] |  | 17 |  | > 400 |  |  |  | mortality at 240 h [2]: 0%; C6 in vivo EFFICACY (C6 glioma cells; at 60 mg/kg): no effect
10 | CC(C)(C)c1cc(C=C(C#N)c2[nH]nc(N)c2C#N)cc(C(C)(C)C)c1O [Compound C13] | 3.3 |  |  |  | 16 | 29 |  | IC50 (PDGFR [3]): 16 µM
11 | N#CCS(=O)(=O)C(C#N)=Cc1cc(O)c(O)c(Br)c1 [Compound J11] | > 25 | 14 | 3.1 µM |  | > 100 | > 50 | 3 | 
12 | COc1cc2ncnc(Nc3ccccc3)c2cc1OC [Compound P14] | > 200 |  |  |  | > 50 | 10 | 26 | 
13 | N#CC(=Cc1cc(O)c(O)c(Br)c1)S(=O)(=O)C(C#N)=Cc1cc(O)c(O)c(Br)c1 [Compound J10] |  | 12 | > 50 µM | 171 | > 100 | > 100 |  | IC50 (PDGFR [1]): 1 µM; mortality [2, 5]: 100%; inhibition in vivo at 40 mg/kg (C6 glioma cells; [6]): 73%; IC50 (PDGF-R (U1242); [4]): 1 µM

— patent US6331555A, “Treatment of platelet derived growth factor related disorders such as cancers” (priority 1999, dated 2001)
